From patent US4120955A, “Method for production of kanamycin C and its derivatives” (Zaidan Hojin Biseibutsu Kagaku Kenkyu Kai, priority 1976, dated 1978)
Converted amounts (≈) assume the structure as drawn. “Also recorded” adds a separate entry of the source. Like-named read-outs stand apart in the source and are kept apart here.

Key:
[1] = tested on: Pseudomonas aeruginosa No. 12; assay: Minimum inhibitory concentration, serial dilution method; type: cell-based
Description: (§1) The minimum inhibitory concentrations (mcg/ml) of kanamycin C, 3'-deoxykanamycin C and 3',4'-dideoxykanamycin C against various microorganisms were determened according to serial dilution method using nutrient agar medium at 37° C., the estimation being effected after 18 hours incubation.

Escherichia coli W 677 = assay: as above; type: cell-based
Description: as §1

[2] = tested on: Escherichia coli K-12 ML 1630; assay: as above; type: cell-based; settings: K12ML1630, nutrient agar, 37° C., 18 hours, E. coli K-12 ML 1630
Description: as §1

[3] = tested on: Pseudomonas aeruginosa GN 315; assay: as above; type: cell-based
Description: as §1

[4] = tested on: Mycobacterium smegmatis ATCC 607; assay: as above; type: cell-based; settings: Mycolicibacterium smegmatis, read-out: Minimum Inhibitory Concentration
Description: as §1

[5] = tested on: Escherichia coli LA 290 R56; assay: as above; type: cell-based; settings: LA290R56, 18 h, read-out: Minimum Inhibitory Concentration
Description: as §1

99 = assay: as above; type: cell-based; settings: 18 h, read-out: Minimum Inhibitory Concentration
Description: as §1

[6] = tested on: Klebsiella pneumoniae 22 No. 3038; assay: as above; type: cell-based
Description: as §1

Escherichia coli K-12 = assay: as above; type: cell-based
Description: as §1

[7] = tested on: Pseudomonas aeruginosa A3; assay: as above; type: cell-based; settings: nutrient agar, 37° C., 18 hours, P. aeruginosa A3
Description: as §1

Escherichia coli NIHJ = assay: as above; type: cell-based; settings: read-out: Minimum Inhibitory Concentration
Description: as §1

Escherichia coli K-12 R5 = assay: as above; type: cell-based; settings: K12R5, 18 h, read-out: Minimum Inhibitory Concentration
Description: as §1

[8] = tested on: Staphylococcus aureus FDA 209P; assay: as above; type: cell-based; settings: FDA209P, read-out: Minimum Inhibitory Concentration
Description: as §1

[9] = tested on: Escherichia coli K-12 ML 1410 R81; assay: as above; type: cell-based; settings: 18 h, read-out: Minimum Inhibitory Concentration
Description: as §1

[10] = tested on: Klebsiella pneumoniae PCI 602; assay: as above; type: cell-based
Description: as §1

[11] = tested on: Pseudomonas aeruginosa TI-13; assay: as above; type: cell-based; settings: TI13, 18 h, read-out: Minimum Inhibitory Concentration
Description: as §1

[12] = tested on: Escherichia coli LA 290 R55; assay: as above; type: cell-based; settings: LA290R55, 18 h, read-out: Minimum Inhibitory Concentration
Description: as §1

[13] = tested on: Escherichia coli K-12 ML 1629; assay: as above; type: cell-based
Description: as §1

[14] = tested on: Escherichia coli LA 290 R64; assay: as above; type: cell-based; settings: LA290R64, 18 h, read-out: Minimum Inhibitory Concentration
Description: as §1

[15] = tested on: Escherichia coli JR 66/W677; assay: as above; type: cell-based
Description: as §1

[16] = tested on: Escherichia coli K-12 ML 1410; assay: as above; type: cell-based; settings: K12ML1410, nutrient agar, 37° C., 18 hours, E. coli K-12 ML 1410
Description: as §1

[17] = tested on: Pseudomonas aeruginosa H 11; assay: as above; type: cell-based; settings: H11, 18 h, read-out: Minimum Inhibitory Concentration
Description: as §1

in vivo = settings: mouse, iv
[18] = tested on: aminoglycoside 6'-acetyltransferases; assay: Inactivation by aminoglycoside 6'-acetyltransferases; type: biochemical
[19] = mouse, in vivo
bacterial strains = assay: Antibacterial activity in general (summary of Table 1); type: cell-based
Description: as §1

[20] = tested on: aminoglycoside 3'-phosphotransferases; assay: Inactivation by aminoglycoside 3'-phosphotransferases; type: biochemical
[21] = tested on: resistant strains which produce 6'-acetyltransferases, for example Pseudomonas aeruginosa GN315; settings: known deoxykanamycin B derivatives; cited from earlier work
[22] = tested on: aminoglycoside 6'-acetyltransferases; settings: known kanamycins; cited from earlier work
[23] = tested on: resistant bacteria which produce 3'-phosphotransferases; settings: known deoxykanamycin B derivatives; cited from earlier work
[24] = NO.12, 18 h, read-out: Minimum Inhibitory Concentration
[25] = W677, 18 h, read-out: Minimum Inhibitory Concentration
[26] = GN315, 18 h, read-out: Minimum Inhibitory Concentration
[27] = ATCC607, nutrient agar, 37° C., 18 hours, M. smegmatis ATCC 607
[28] = 22NO.3038, 18 h, read-out: Minimum Inhibitory Concentration
[29] = K12, 18 h, read-out: Minimum Inhibitory Concentration
[30] = PCI602, 18 h, read-out: Minimum Inhibitory Concentration
[31] = K12ML1629, 18 h, read-out: Minimum Inhibitory Concentration
[32] = JR66/W677, 18 h, read-out: Minimum Inhibitory Concentration
[33] = W677, nutrient agar, 37° C., 18 hours, E. coli W 677, read-out: Minimum Inhibitory Concentration
[34] = nutrient agar, 37° C., 18 hours, K. pneumoniae 22 No. 3038, read-out: Minimum Inhibitory Concentration
[35] = K12, nutrient agar, 37° C., 18 hours, E. coli K-12, read-out: Minimum Inhibitory Concentration
[36] = nutrient agar, 37° C., 18 hours, S. aureus FDA 209P
[37] = PCI602, nutrient agar, 37° C., 18 hours, K. pneumoniae PCI 602, read-out: Minimum Inhibitory Concentration
[38] = JR66/W677, nutrient agar, 37° C., 18 hours, E. coli JR 66/W677, read-out: Minimum Inhibitory Concentration

SMILES	MIC [1, 24] [mg/L]	MIC (Escherichia coli W 677; [25]) [mg/L]	MIC [2] [mg/L]	MIC [3, 26] [mg/L]	MIC [4, 27] [mg/L]	MIC [5] [mg/L]	MIC 99 [mg/L]	MIC [6, 28] [mg/L]	MIC (Escherichia coli K-12; [29]) [mg/L]	MIC [7] [mg/L]	MIC (Escherichia coli NIHJ; 18 h) [mg/L]	MIC (Escherichia coli K-12 R5) [mg/L]	MIC ([8]; 18 h) [mg/L]	MIC [9] [mg/L]	MIC [11] [mg/L]	MIC [12] [mg/L]	MIC [13, 31] [mg/L]	MIC [14] [mg/L]	MIC [16] [mg/L]	inactivation (acetylation of the 6'-amino group) by 6'-acetyltransferases [22]	further results
NC1CCC(CO)OC1OC1C(N)CC(N)C(OC2OC(CO)C(O)C(N)C2O)C1O (stereo not drawn) [3',4'-Dideoxykanamycin C, 3',4'-dideoxykanamycin C]	100 (≈ 221 µM)	6.25 (≈ 13.8 µM)	12.5 (≈ 27.6 µM)	100 (≈ 221 µM)	50 (≈ 110 µM)	100 (≈ 221 µM)	> 100	> 100	25 (≈ 55.2 µM)	100 (≈ 221 µM)	12.5 (≈ 27.6 µM)	12.5 (≈ 27.6 µM)	6.25 (≈ 13.8 µM)	50 (≈ 110 µM)	100 (≈ 221 µM)	> 100	12.5 (≈ 27.6 µM)	100 (≈ 221 µM)	12.5 (≈ 27.6 µM)		MIC [10, 30]: 25 mg/L (≈ 55.2 µM); MIC [15, 32]: > 100 mg/L; MIC [17]: 100 mg/L (≈ 221 µM); LD50 (in vivo): > 300 mg/kg; inactivation by 6'-acetyltransferases [18]: not inactivated; acute toxicity compared with deoxy derivatives of kanamycin B [19]: remarkably lower toxicity; growth inhibition of bacterial strains (bacterial strains): inhibits the growth of many kinds of bacterial strains; antibacterial activity compared with 3'-deoxykanamycin B and 3',4'-dideoxykanamycin B (bacterial strains; against some bacteria strains): inferior; inactivation by 3'-phosphotransferases [20]: not inactivated
NCC1CCC(N)C(OC2C(N)CC(N)C(OC3OC(CO)C(O)C(N)C3O)C2O)O1 (stereo not drawn) [DKB, 3',4'-dideoxykanamycin B, reference compound]			0.78 (≈ 1.73 µM)		0.39 (≈ 0.864 µM)	12.5 (≈ 27.7 µM)	3.13 (≈ 6.93 µM)			1.56 (≈ 3.45 µM)				1.56 (≈ 3.45 µM)	1.56 (≈ 3.45 µM)	50 (≈ 111 µM)		6.25 (≈ 13.8 µM)	1.56 (≈ 3.45 µM)	can be inactivated; also recorded: acetylate the 6'-amino group	MIC ([1]; nutrient agar, 37° C., 18 hours, P. aeruginosa No. 12, read-out: Minimum Inhibitory Concentration): 0.78 mg/L (≈ 1.73 µM); MIC (Escherichia coli W 677; [33]): 0.2 mg/L (≈ 0.443 µM); MIC ([3]; GN315, nutrient agar, 37° C., 18 hours, P. aeruginosa GN 315, read-out: Minimum Inhibitory Concentration): > 100 mg/L; MIC [6, 34]: 100 mg/L (≈ 221 µM); MIC (Escherichia coli K-12; [35]): 0.78 mg/L (≈ 1.73 µM); MIC (Escherichia coli NIHJ; nutrient agar, 37° C., 18 hours, E. coli NIHJ): 0.39 mg/L (≈ 0.864 µM); MIC [8, 36]: < 0.2 mg/L; MIC [10, 37]: 0.39 mg/L (≈ 0.864 µM); MIC ([13]; K12ML1629, nutrient agar, 37° C., 18 hours, E. coli K-12 ML 1629, read-out: Minimum Inhibitory Concentration): 0.78 mg/L (≈ 1.73 µM); MIC [15, 38]: 50 mg/L (≈ 111 µM); growth inhibition of resistant bacteria producing 6'-acetyltransferases [21]: not able to inhibit the growth
NCC1OC(OC2C(N)CC(N)C(OC3OC(CO)C(O)C(N)C3O)C2O)C(N)CC1O (stereo not drawn) [DKMB, 3'-deoxykanamycin B, reference compound]	0.78 (≈ 1.67 µM)		1.56 (≈ 3.34 µM)	100 (≈ 214 µM)	0.39 (≈ 0.834 µM)	3.13 (≈ 6.69 µM)	1.56 (≈ 3.34 µM)			1.56 (≈ 3.34 µM)	0.78 (≈ 1.67 µM)			1.56 (≈ 3.34 µM)	0.78 (≈ 1.67 µM)	25 (≈ 53.5 µM)	1.56 (≈ 3.34 µM)	3.13 (≈ 6.69 µM)	1.56 (≈ 3.34 µM)	can be inactivated; also recorded: acetylate the 6'-amino group	MIC (Escherichia coli W 677; [33]): 0.39 mg/L (≈ 0.834 µM); MIC [6, 34]: 50 mg/L (≈ 107 µM); MIC (Escherichia coli K-12; [35]): 0.39 mg/L (≈ 0.834 µM); MIC [8, 36]: < 0.2 mg/L; MIC [10, 37]: 0.39 mg/L (≈ 0.834 µM); MIC [15, 38]: 50 mg/L (≈ 107 µM); LD50 (in vivo): 159 mg/kg; growth inhibition of resistant bacteria producing 6'-acetyltransferases [21]: not able to inhibit the growth; activity against resistant bacteria producing aminoglycoside 3'-phosphotransferases [23]: active
NC1CC(N)C(OC2OC(CO)C(O)C(N)C2O)C(O)C1OC1OC(CO)C(O)C(O)C1N (stereo not drawn) [Kanamycin C, kanamycin C]	100 (≈ 206 µM)	3.13 (≈ 6.46 µM)	> 100	> 100		25 (≈ 51.6 µM)	> 100	> 100	3.13 (≈ 6.46 µM)	> 100	3.13 (≈ 6.46 µM)	3.13 (≈ 6.46 µM)	1.56 (≈ 3.22 µM)	> 100	> 100	> 100	> 100	25 (≈ 51.6 µM)	6.25 (≈ 12.9 µM)		MIC ([4]; ATCC607, 18 h): 12.5 mg/L (≈ 25.8 µM); MIC [10, 30]: 3.13 mg/L (≈ 6.46 µM); MIC [15, 32]: > 100 mg/L; MIC [17]: > 100 mg/L; inactivation by 6'-acetyltransferases [18]: inherently cannot be inactivated
NCC1OC(OC2C(N)CC(N)C(OC3OC(CO)C(O)C(N)C3O)C2O)C(O)C(O)C1O (stereo not drawn) [kanamycin A]																				acetylate the 6'-amino group	
NC[C@H]1O[C@H](O[C@H]2[C@H](O)[C@@H](O[C@H]3O[C@H](CO)[C@@H](O)[C@H](N)[C@H]3O)[C@H](N)C[C@@H]2N)[C@H](N)[C@@H](O)[C@@H]1O [kanamycin B]																				acetylate the 6'-amino group	
